# From PubChem BioAssay (NCI)
#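 Following 48 hours of exposure in 96-well plates, responses at five concentrations were used to interpolate endpoints linearly. GI50 is the concentration that inhibits growth by half. TGI marks complete inhibition of growth.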
# Key:
# Test in all cases: growth of human tumour cells (NCI), 48 h
# HCT-15 colon = system: HCT-15 colon
# UACC-257 melanoma = system: UACC-257 melanoma
# CCRF-CEM leukemia = system: CCRF-CEM leukemia
# SK-MEL-28 melanoma = system: SK-MEL-28 melanoma
# NCI/ADR-RES ovarian = system: NCI/ADR-RES ovarian
# HT29 colon = system: HT29 colon
# SK-MEL-5 melanoma = system: SK-MEL-5 melanoma
# M14 melanoma = system: M14 melanoma
# MDA-MB-231 breast = system: MDA-MB-231 breast
# K-562 leukemia = system: K-562 leukemia
# TK-10 renal = system: TK-10 renal
# MDA-MB-435 = system: MDA-MB-435
# OVCAR-8 ovarian = system: OVCAR-8 ovarian
# SNB-75 CNS = system: SNB-75 CNS
# LOX IMVI melanoma = system: LOX IMVI melanoma
# A549 NSCLC = system: A549 NSCLC
# HOP-92 NSCLC = system: HOP-92 NSCLC
# SN12C renal = system: SN12C renal
# ACHN renal = system: ACHN renal
# KM12 colon = system: KM12 colon
# MALME-3M melanoma = system: MALME-3M melanoma
# HCC-2998 colon = system: HCC-2998 colon
# NCI-H226 lung = system: NCI-H226 lung
# RXF 393 renal = system: RXF 393 renal
# OVCAR-5 ovarian = system: OVCAR-5 ovarian
# IGROV1 ovarian = system: IGROV1 ovarian
# SF-268 CNS = system: SF-268 CNS
# HCT-116 colon = system: HCT-116 colon
# HOP-62 NSCLC = system: HOP-62 NSCLC
# COLO 205 colon = system: COLO 205 colon
# BT-549 breast = system: BT-549 breast
# MCF7 breast = system: MCF7 breast
# DU-145 prostate = system: DU-145 prostate
# 786-0 renal = system: 786-0 renal
# A498 renal = system: A498 renal
# PC-3 prostate = system: PC-3 prostate
# NCI-H522 lung = system: NCI-H522 lung
# U251 CNS = system: U251 CNS
# SNB-19 CNS = system: SNB-19 CNS
# SK-MEL-2 melanoma = system: SK-MEL-2 melanoma
# UO-31 renal = system: UO-31 renal
# HS 578T breast = system: HS 578T breast
# SR leukemia = system: SR leukemia
# NCI-H460 lung = system: NCI-H460 lung
# HL-60(TB) leukemia = system: HL-60(TB) leukemia
# RPMI-8226 leukemia = system: RPMI-8226 leukemia
# NCI-H23 lung = system: NCI-H23 lung
# SK-OV-3 ovarian = system: SK-OV-3 ovarian
# EKVX NSCLC = system: EKVX NSCLC
# SW-620 colon = system: SW-620 colon
# OVCAR-4 ovarian = system: OVCAR-4 ovarian
# T-47D breast = system: T-47D breast
# SF-295 CNS = system: SF-295 CNS
# SF-539 CNS = system: SF-539 CNS
# OVCAR-3 ovarian = system: OVCAR-3 ovarian
# MOLT-4 leukemia = system: MOLT-4 leukemia
# CAKI-1 renal = system: CAKI-1 renal
# UACC-62 melanoma = system: UACC-62 melanoma
smiles,measurement,setting,value
O=C(C(=O)c1cccnc1)c1cccnc1,GI50,HCT-15 colon,> 100 µM
same,TGI,HCT-15 colon,> 100 µM
same,GI50,UACC-257 melanoma,> 100 µM
same,TGI,UACC-257 melanoma,> 100 µM
same,GI50,CCRF-CEM leukemia,> 100 µM
same,TGI,CCRF-CEM leukemia,> 100 µM
same,GI50,SK-MEL-28 melanoma,> 100 µM
same,TGI,SK-MEL-28 melanoma,> 100 µM
same,GI50,NCI/ADR-RES ovarian,> 100 µM
same,TGI,NCI/ADR-RES ovarian,> 100 µM
same,GI50,HT29 colon,> 100 µM
same,TGI,HT29 colon,> 100 µM
same,GI50,SK-MEL-5 melanoma,> 100 µM
same,TGI,SK-MEL-5 melanoma,> 100 µM
same,GI50,M14 melanoma,> 100 µM
same,TGI,M14 melanoma,> 100 µM
same,GI50,MDA-MB-231 breast,> 100 µM
same,TGI,MDA-MB-231 breast,> 100 µM
same,GI50,K-562 leukemia,> 100 µM
same,TGI,K-562 leukemia,> 100 µM
same,GI50,TK-10 renal,> 100 µM
same,TGI,TK-10 renal,> 100 µM
same,GI50,MDA-MB-435,> 100 µM
same,TGI,MDA-MB-435,> 100 µM
same,GI50,OVCAR-8 ovarian,> 100 µM
same,TGI,OVCAR-8 ovarian,> 100 µM
same,GI50,SNB-75 CNS,> 100 µM
same,TGI,SNB-75 CNS,> 100 µM
same,GI50,LOX IMVI melanoma,> 100 µM
same,TGI,LOX IMVI melanoma,> 100 µM
same,GI50,A549 NSCLC,> 100 µM
same,TGI,A549 NSCLC,> 100 µM
same,GI50,HOP-92 NSCLC,> 100 µM
same,TGI,HOP-92 NSCLC,> 100 µM
same,GI50,SN12C renal,> 100 µM
same,TGI,SN12C renal,> 100 µM
same,GI50,ACHN renal,> 100 µM
same,TGI,ACHN renal,> 100 µM
same,GI50,KM12 colon,> 100 µM
same,TGI,KM12 colon,> 100 µM
same,GI50,MALME-3M melanoma,> 100 µM
same,TGI,MALME-3M melanoma,> 100 µM
same,GI50,HCC-2998 colon,> 100 µM
same,TGI,HCC-2998 colon,> 100 µM
same,GI50,NCI-H226 lung,> 100 µM
same,TGI,NCI-H226 lung,> 100 µM
same,GI50,RXF 393 renal,> 100 µM
same,TGI,RXF 393 renal,> 100 µM
same,GI50,OVCAR-5 ovarian,> 100 µM
same,TGI,OVCAR-5 ovarian,> 100 µM
same,GI50,IGROV1 ovarian,> 100 µM
same,TGI,IGROV1 ovarian,> 100 µM
same,GI50,SF-268 CNS,> 100 µM
same,TGI,SF-268 CNS,> 100 µM
same,GI50,HCT-116 colon,> 100 µM
same,TGI,HCT-116 colon,> 100 µM
same,GI50,HOP-62 NSCLC,> 100 µM
same,TGI,HOP-62 NSCLC,> 100 µM
same,GI50,COLO 205 colon,> 100 µM
same,TGI,COLO 205 colon,> 100 µM
same,GI50,BT-549 breast,> 100 µM
same,TGI,BT-549 breast,> 100 µM
same,GI50,MCF7 breast,> 100 µM
same,TGI,MCF7 breast,> 100 µM
same,GI50,DU-145 prostate,> 100 µM
same,TGI,DU-145 prostate,> 100 µM
same,GI50,786-0 renal,> 100 µM
same,TGI,786-0 renal,> 100 µM
same,GI50,A498 renal,> 100 µM
same,TGI,A498 renal,> 100 µM
same,GI50,PC-3 prostate,> 100 µM
same,TGI,PC-3 prostate,> 100 µM
same,GI50,NCI-H522 lung,> 100 µM
same,TGI,NCI-H522 lung,> 100 µM
same,GI50,U251 CNS,> 100 µM
same,TGI,U251 CNS,> 100 µM
same,GI50,SNB-19 CNS,> 100 µM
same,TGI,SNB-19 CNS,> 100 µM
same,GI50,SK-MEL-2 melanoma,> 100 µM
same,TGI,SK-MEL-2 melanoma,> 100 µM
same,GI50,UO-31 renal,> 100 µM
same,TGI,UO-31 renal,> 100 µM
same,GI50,HS 578T breast,> 100 µM
same,TGI,HS 578T breast,> 100 µM
same,GI50,SR leukemia,> 100 µM
same,TGI,SR leukemia,> 100 µM
same,GI50,NCI-H460 lung,> 100 µM
same,TGI,NCI-H460 lung,> 100 µM
same,GI50,HL-60(TB) leukemia,> 100 µM
same,TGI,HL-60(TB) leukemia,> 100 µM
same,GI50,RPMI-8226 leukemia,> 100 µM
same,TGI,RPMI-8226 leukemia,> 100 µM
same,GI50,NCI-H23 lung,> 100 µM
same,TGI,NCI-H23 lung,> 100 µM
same,GI50,SK-OV-3 ovarian,> 100 µM
same,TGI,SK-OV-3 ovarian,> 100 µM
same,GI50,EKVX NSCLC,> 100 µM
same,TGI,EKVX NSCLC,> 100 µM
same,GI50,SW-620 colon,> 100 µM
same,TGI,SW-620 colon,> 100 µM
same,GI50,OVCAR-4 ovarian,> 100 µM
same,TGI,OVCAR-4 ovarian,> 100 µM
same,GI50,T-47D breast,> 100 µM
same,TGI,T-47D breast,> 100 µM
same,GI50,SF-295 CNS,> 100 µM
same,TGI,SF-295 CNS,> 100 µM
same,GI50,SF-539 CNS,> 100 µM
same,TGI,SF-539 CNS,> 100 µM
same,GI50,OVCAR-3 ovarian,> 100 µM
same,TGI,OVCAR-3 ovarian,> 100 µM
same,GI50,MOLT-4 leukemia,> 100 µM
same,TGI,MOLT-4 leukemia,> 100 µM
same,GI50,CAKI-1 renal,> 100 µM
same,TGI,CAKI-1 renal,> 100 µM
same,GI50,UACC-62 melanoma,> 100 µM
same,TGI,UACC-62 melanoma,> 100 µM
